Structures can show the parent of a compound that is named as a salt.
Legend:
[1] = tested on: rats; experiment: In vivo test: behavior, spontaneous motor activity (distance traveled in motility meter); set-up: species or system rat; details: n=4; for motoractivity in the behavioral assay: 100 μmol/kg s.c., 0-60 min
[2] = tested on: 3,4-dihydroxyphenylacetic acid (DOPAC) in the striatum; experiment: In vivo test: neurochemistry, 3,4-dihydroxyphenylacetic acid (DOPAC) in the striatum; set-up: species or system rat; details: 100 μmol/kg s.c., n=4
Description: (§1) In vivo Test: Neurochemistry
(§2) After the behavioral activity sessions the rats were decapitated and their brains rapidly taken out and put on an ice-cold petri-dish. The limbic forebrain, the striatum, the frontal cortex and the remaining hemispheral parts of each rat were dissected and frozen. Each brain part was subsequently analyzed with respect to its content of monoamines and their metabolites. The monoaminergic indices analyzed were dopamine (DA), 3,4-dihydroxyphenylacetic acid (DOPAC), homovanillic acid (HVA), 3-methoxytyramine (3-MT), serotonin (5-HT), 5-hydroxyindole acetic acid (5-HIAA), and noradrenaline (NA). All monoaminergic indices in the dissected tissue were analyzed by means of HPLC with electrochemical detection as described by Svensson K, et al., 1986, NaunynSchmiedeberg's Arch Pharmacol 334: 234-245 and references cited therein.

[3] = tested on: serotonin in the striatum; experiment: In vivo test: neurochemistry, serotonin (5-HT) in the striatum; set-up: species or system rat; details: n=4
Description: as §1, §2

[4] = tested on: rats pretreated with d-amphetamine; experiment: In vivo test: behavior, d-amphetamine induced hyperactivity; set-up: species or system rat; details: 100 μmol/kg s.c.; d-amphetamine 1.5 mg/kg s.c. pretreatment, n=4

Row | SMILES | melting point [°C] | motoractivity in the behavioral assay [1] [cm/60 min] | 3,4-dihydroxy-phenylacetic acid in the striatum [2] [ng/g tissue] | other results
1 | CCCN1[C@H](C)CN(c2cccc(S(C)(=O)=O)c2)C[C@@H]1C (as salt: HCl) [Example 3, cis-4-(3-Methanesulfonyl-phenyl)-2,6-dimethyl-1-propyl-piperazine] | 233 | – | – | –
2 | CCCN1CC[C@H](c2cccc(S(C)(=O)=O)c2)[C@H](C)C1 (relative stereo) (as salt: HCl) [Example 4, cis-4-(3-Methanesulfonyl-phenyl)-3-methyl-1-propyl-piperidine] | 197 | – | – | –
3 | CCCN1CC[C@H](c2cccc(S(C)(=O)=O)c2)[C@H](C)C1 (relative stereo) [Example 4, cis-4-(3-Methanesulfonyl-phenyl)-3-methyl-1-propyl-piperidine] | – | 4948±577 | 1884±98 | –
4 | CCCN1CCN(c2cccc(C(F)(F)F)c2)CC1 [1-propyl-4-(3-triflouro-methyl-phenyl)-piperazine, reference compound] | – | – | – | serotonin in the striatum ([3]; 50 μmol/kg s.c.): 308±18 ng/g tissue; motoractivity in the behavioral assay (behavioral inhibition) ([1]; 50 μmol/kg s.c.): 271±137 cm/60 min
5 | CCCN1[C@H](C)CN(c2cccc(C(F)(F)F)c2)C[C@@H]1C [Example 2, cis-2,6-Dimethyl-1-propyl-4-(3-trifluoro-methyl-phenyl)-piperazine] | – | 3619±483 | 1388±60 | serotonin in the striatum ([3]; 100 μmol/kg s.c.): 419±23 ng/g tissue
6 | CCCN1[C@H](C)CN(c2cccc(S(C)(=O)=O)c2)C[C@@H]1C [Example 3, cis-4-(3-Methanesulfonyl-phenyl)-2,6-dimethyl-1-propyl-piperazine] | – | – | 3140±169 | motor activity ([1]; 100 μmol/kg, 30-60 min post injection): 253±73 cm/30 min; d-amphetamine induced hyperactivity [4]: 2492±530 cm/60 min

— patent US20030109532A1, “Modulators of dopamine neurotransmission” (priority 2002, published 2003)
